Test results as given in patent EP1431280A1, “ARYL SULFAMATE DERIVATIVES” (Kyowa Hakko Kogyo Co., Ltd, priority 2001, dated 2003).

Molecular target: T1, recombinant human estrone sulfatase (Homo sapiens, UniProt P08842)
T1 construct: made in house; host or cells: Chinese Hamster Ovary (CHO) cells
T1 sequence (P08842 22-583): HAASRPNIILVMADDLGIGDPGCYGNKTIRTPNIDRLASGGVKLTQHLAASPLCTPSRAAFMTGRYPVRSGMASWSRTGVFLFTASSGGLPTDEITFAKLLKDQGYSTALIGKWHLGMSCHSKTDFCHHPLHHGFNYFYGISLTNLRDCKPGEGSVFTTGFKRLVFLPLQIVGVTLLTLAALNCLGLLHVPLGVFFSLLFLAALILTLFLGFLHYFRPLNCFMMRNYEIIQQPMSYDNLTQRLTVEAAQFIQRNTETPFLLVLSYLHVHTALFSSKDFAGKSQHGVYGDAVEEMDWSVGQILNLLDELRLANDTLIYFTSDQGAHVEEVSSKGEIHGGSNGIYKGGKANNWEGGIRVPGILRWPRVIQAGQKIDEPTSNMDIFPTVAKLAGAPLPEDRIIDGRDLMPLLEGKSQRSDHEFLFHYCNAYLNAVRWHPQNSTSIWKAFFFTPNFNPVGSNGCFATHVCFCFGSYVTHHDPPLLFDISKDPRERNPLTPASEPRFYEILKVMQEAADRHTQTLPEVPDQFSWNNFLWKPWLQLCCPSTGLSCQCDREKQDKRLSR
Experiment: Test for inhibition of estrone sulfatase (steroid sulfatase)
Type: biochemical
Details: 4-methylumbelliferyl sulfate 0.3 mmol/L, phosphate buffer pH 7.5, 37 °C, 1 hour, fluorescence of 4-methylumbelliferone; read-out: IC50, inhibitory activity against steroid sulfatase
Experimental: 4-Methylumbelliferyl sulfate (final concentration 0.3 mmol/L), recombinant human estrone sulfatase (7.8 ng/well), and each solution of the test compound having each test concentrations (test compound was dissolved in 0.001 mL of DMSO) were added to a phosphate buffer (pH 7.5) (final volume 0.1 mL) containing 0.28 mol/L sucrose and 0.04 mol/L nicotinamide. An enzyme reaction was conducted at 37 °C for 1 hour. The human estrone sulfatase gene was introduced into Chinese Hamster Ovary (CHO) cells, and the recombinant human estrone sulfatase was expressed, then it was used after partial purification. After completing the enzyme reaction, 2 mol/L glycine-sodium hydroxide solution (pH 10.3) (0.13 mL) was added and stirred. Using a fluorescent plate reader (Cyto Fluor II), the fluorescent strength of the generated 4-methylumbelliferone was measured. The measurements were conducted in duplicate at the same time. The fluctuations within the assay were within 10%. An enzyme reaction without the presence of a test compound was conducted at the same time. The inhibitory activity against estrone sulfatase for each concentration of the test compounds was calculated using the following equation. • A: Amount of 4-methylumbelliferone when test compound is present • B: Amount of 4-methylumbelliferone when test compound is not present [formula]
The inhibitory activity against estrone sulfatase of the aryl sulfamate derivative can be expressed as the concentration (IC50) of aryl sulfamate derivative at which the estrone sulfatase activity in the presence of the aryl sulfamate derivative is half of that when no test compound is added.

IC50 [nM] | Compound
44 | CCCCCCCCCNC(=O)C=C(C#N)c1ccc(OS(N)(=O)=O)cc1 [Compound 47]
35 | CCCCCCCCCNC(=O)C(C#N)=C(CF)c1ccc(OS(N)(=O)=O)cc1 [Compound 19]
31 | CCCCCCCCCNC(=O)CC(=O)c1ccc(OS(N)(=O)=O)cc1 [Compound 58]
< 12 | CCCCCCCCCNC(=O)C(C#N)=C(O)c1ccc(OS(N)(=O)=O)cc1 [Compound 22]
12 | CCCCCCCNC(=O)C(C#N)=Cc1ccc(OS(N)(=O)=O)cc1 [Compound 6]
< 12 | CCCCCCCNC(=O)C(C#N)=C(C)c1ccc(OS(N)(=O)=O)cc1 [Compound 16]
99 | CCCCCCCCCNC(=O)C#Cc1ccc(OS(N)(=O)=O)cc1 [Compound 57]
14 | CCCCCCCCCNC(=O)C(C#N)=Cc1ccc(OS(N)(=O)=O)cc1 [Compound 5]

Compound | IC50 [nM]
CCCCCCCCNC(=O)/C(C#N)=C(\C)c1ccc(OS(N)(=O)=O)cc1 [Compound 15] | < 12
CCCCCCCCCNC(=O)C(C#N)=C(CC)c1ccc(OS(N)(=O)=O)cc1 [Compound 17] | 17
